Earlier results, collected in patent publication US11111202B2, “Production of salts of 4-hydroxybutyrate using biobased raw materials” (CJ Cheiljedang Corporation, priority 2012, dated 2021).

Columns and labels:
[1] = after oral administration
[2] = or even longer if large doses have been consumed

Compound: O=C(O)CCCO [GHB, γ-Hydroxybutyric acid]
- time of peak plasma concentration [1]: 20 to 60 min
- duration of the effects of GHB [2]: 1.5 to 3 h
